Data from patent US8664220B2, “Polycyclic compounds as lysophosphatidic acid receptor antagonists” (Amira Pharmaceuticals, Inc., priority 2009, dated 2014).

Target: T1, human LPA1 (Homo sapiens, UniProt Q92633)
T1 construct: the full-length cDNA for human LPA1 was obtained by PCR of the reverse transcription reaction; expressed in transfected cells
Assay: LPA1 calcium flux assay
Assay type: cell-based
Conditions: human LPA1 expressing CHO cells, stimulated with 10 nM LPA; read-out: HLPA1 Ca Flux IC50
Method: Establishment of a CHO Cell Line Stably Expressing Human LPA1
A 1.1 kb cDNA encoding the human LPA1 receptor was cloned from human lung.
Human lung RNA (Clontech Laboratories, Inc. USA) was reverse transcribed using the RETROscript kit (Ambion, Inc.) and the full-length cDNA for human LPA1 was obtained by PCR of the reverse transcription reaction. The nucleotide sequence of the cloned human LPA1 was determined by sequencing and confirmed to be identical to the published human LPA1 sequence (An et al. Biochem. Biophys. Res. Commun. 231:619 (1997). The cDNA was cloned into the pcDNA5/FRT expression plasmid and transfected in CHO cells using lipofectamine 2000 (Invitrogen Corp., USA). Clones stably expressing human LPA1 were selected using hygromycin and identified as cells that show Ca-influx in response to LPA.
LPA1 and LPA3 Calcium Flux Assays
Human LPA1 or LPA3 expressing CHO cells are seeded at 20,000-45,000 cells per well in a 96-well poly-D-lysine coated plate one or two days before the assay. Prior to the assay, the cells are washed once with PBS and then cultured in serum-free media overnight. On the day of the assay, a calcium indicator dye (Calcium 4, Molecular Devices) in assay buffer (HBSS with Ca^2+ and Mg^2+ and containing 20 mM Hepes and 0.3% fatty-acid free human serum albumin) is added to each well and incubation continued for 1 hour at 37° C. 10 μl of test compounds in 2.5% DMSO are added to the cells and incubation continued at room temperature for 30 minutes. Cells are the stimulated by the addition of 10 nM LPA and intracellular Ca^2+ measured using the Flexstation 3 (Molecular Devices). IC50s are determined using Graphpad prism analysis of drug titration curves.

T1 sequence (Q92633 whole entry): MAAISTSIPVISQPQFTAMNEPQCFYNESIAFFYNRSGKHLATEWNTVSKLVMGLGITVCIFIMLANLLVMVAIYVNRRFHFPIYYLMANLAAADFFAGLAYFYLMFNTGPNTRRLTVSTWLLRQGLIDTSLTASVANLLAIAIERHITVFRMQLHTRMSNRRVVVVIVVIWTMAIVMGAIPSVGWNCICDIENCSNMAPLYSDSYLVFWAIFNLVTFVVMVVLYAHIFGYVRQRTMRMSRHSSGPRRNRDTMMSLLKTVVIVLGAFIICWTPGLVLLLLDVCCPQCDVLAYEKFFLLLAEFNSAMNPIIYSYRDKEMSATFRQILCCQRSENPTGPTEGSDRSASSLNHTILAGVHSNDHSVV

| SMILES | IC50 [nM] |
| --- | --- |
| Cc1noc(-c2ccc(-c3ccc(C4(C(=O)O)CC4)cc3)cc2)c1CN1CCC(c2ccccc2)C1 (stereo not drawn) [Compound 1-17, 1-{4′-[3-Methyl-4-(3-phenyl-pyrrolidin-1-ylmethyl)-isoxazol-5-yl]-biphenyl-4-yl}-cyclopropanecarboxylic acid] | < 300 |
| Cc1noc(-c2ccc(-c3ccc(C4(C(=O)O)CC4)cc3)cc2)c1CN1CCCC(c2ccccc2)C1 (stereo not drawn) [Compound 1-18, 1-{4′-[3-Methyl-4-(3-phenyl-piperidin-1-ylmethyl)-isoxazol-5-yl]-biphenyl-4-yl}-cyclopropanecarboxylic acid] | < 300 |
| Cc1noc(-c2ccc(-c3ccc(C4(C(=O)O)CC4)cc3)cc2)c1CNc1nnc(-c2ccccc2)o1 [Compound 1-19, 1-(4′-{3-Methyl-4-[(5-phenyl-[1,3,4]oxadiazol-2-ylamino)-methyl]-isoxazol-5-yl}-biphenyl-4-yl)-cyclopropanecarboxylic acid] | < 300 |
| Cc1noc(-c2ccc(-c3ccc(C4(C(=O)O)CC4)cc3)cc2)c1Cn1nncc1-c1ccccc1 [Compound 1-20, 1-{4′-[3-Methyl-4-(5-phenyl-[1,2,3]triazol-1-ylmethyl)-isoxazol-5-yl]-biphenyl-4-yl}-cyclopropanecarboxylic acid] | 300 to 1000 |
| Cc1noc(-c2ccc(-c3ccc(C4(C(=O)O)CC4)cc3)cc2)c1Cn1nnc(-c2ccccc2)n1 [Compound 1-21, 1-{4′-[3-Methyl-4-(5-phenyl-tetrazol-2-ylmethyl)-isoxazol-5-yl]-biphenyl-4-yl}-cyclopropanecarboxylic acid] | < 300 |
| Cc1noc(-c2ccc(-c3ccc(C4(C(=O)O)CC4)cc3)cc2)c1CN1CC(c2ccccc2)OC1=O (stereo not drawn) [Compound 1-22, 1-{4′-[3-Methyl-4-(2-oxo-5-phenyl-oxazolidin-3-ylmethyl)-isoxazol-5-yl]-biphenyl-4-yl}-cyclopropanecarboxylic acid] | < 300 |
| Cc1noc(-c2ccc(-c3ccc(C4(C(=O)O)CC4)cc3)cc2)c1Cn1cc(-c2ccccc2)cn1 [Compound 1-23, 1-{4′-[3-Methyl-4-(4-phenyl-pyrazol-1-ylmethyl)-isoxazol-5-yl]-biphenyl-4-yl}-cyclopropanecarboxylic acid] | < 300 |
| Cc1noc(-c2ccc(-c3ccc(C4(C(=O)O)CC4)cc3)cc2)c1-c1nnc(Cc2ccccc2)o1 [Compound 1-24, 1-{4′-[4-(5-Benzyl-[1,3,4]oxadiazol-2-yl)-3-methyl-isoxazol-5-yl]-biphenyl-4-yl}-cyclopropanecarboxylic acid] | 1000 to 50000 |
| Cc1noc(-c2ccc(-c3ccc(C4(C(=O)O)CC4)cc3)cc2)c1C1CN(Cc2ccccc2)C(=O)O1 (stereo not drawn) [Compound 1-28, 1-{4′-[4-(3-Benzyl-2-oxo-oxazolidin-5-yl)-3-methyl-isoxazol-5-yl]-biphenyl-4-yl}-cyclopropanecarboxylic acid] | < 300 |
| Cc1noc(-c2ccc(-c3ccc(C4(C(=O)O)CC4)cc3)cc2)c1Cc1nnc(Cc2ccccc2)o1 [Compound 1-29, 1-{4′-[4-(5-Benzyl-[1,3,4]oxadiazol-2-ylmethyl)-3-methyl-isoxazol-5-yl]-biphenyl-4-yl}-cyclopropanecarboxylic acid] | < 300 |
| Cc1noc(-c2ccc(-c3ccc(C4(C(=O)O)CC4)cc3)cc2)c1C(O)c1nnc(Cc2ccccc2)o1 (stereo not drawn) [Compound 1-30, 1-(4′-{4-[(5-Benzyl-[1,3,4]oxadiazol-2-yl)-hydroxy-methyl]-3-methyl-isoxazol-5-yl}-biphenyl-4-yl)-cyclopropanecarboxylic acid] | < 300 |
| Cc1noc(-c2ccc(-c3ccc(C4(C(=O)O)CC4)cc3)cc2)c1Cc1cn(Cc2ccccc2)nn1 [Compound 1-31, 1-{4′-[4-(1-Benzyl-1H-[1,2,3]triazol-4-ylmethyl)-3-methyl-isoxazol-5-yl]-biphenyl-4-yl}-cyclopropanecarboxylic acid] | < 300 |
| Cc1noc(-c2ccc(-c3ccc(C4(CC(=O)O)CC4)cc3)cc2)c1C(O)CCCc1ccc(Cc2ccccc2)cc1 (stereo not drawn) [Compound 1-32, [1-(4′-{4-[4-(4-Benzyl-phenyl)-1-hydroxy-butyl]-3-methyl-isoxazol-5-yl}-biphenyl-4-yl)-cyclopropyl]-acetic acid] | 1000 to 50000 |
| Cc1noc(-c2ccc(-c3ccc(C4(CC(=O)O)CC4)cc3)cc2)c1C(O)CCCc1ccc(Oc2ccccc2)cc1 (stereo not drawn) [Compound 1-33, [1-(4′-{-4-[1-Hydroxy-4-(4-phenoxy-phenyl)-butyl]-3-methyl-isoxazol-5-yl}-biphenyl-4-yl)-cyclopropyl]-acetic acid] | 1000 to 50000 |
| Cc1noc(-c2ccc(-c3ccc(C4(C(=O)O)CC4)cc3)cc2)c1NC1CCN(Cc2ccccc2)CC1 [Compound 1-36, 1-{4′-[4-(1-Benzyl-piperidin-4-ylamino)-3-methyl-isoxazol-5-yl]-biphenyl-4-yl}-cyclopropanecarboxylic acid] | 1000 to 50000 |
| Cc1noc(-c2ccc(-c3ccc(C4(CC(=O)O)CC4)cc3)cc2)c1NC1CCN(Cc2ccccc2)CC1 [Compound 1-37, (1-{4′-[4-(1-Benzyl-piperidin-4-ylamino)-3-methyl-isoxazol-5-yl]-biphenyl-4-yl}-cyclopropyl)-acetic acid] | 1000 to 50000 |
| Cc1noc(-c2ccc(-c3ccc(C4(C(=O)O)CC4)cc3)cc2)c1C(O)c1nnc(-c2ccccc2)o1 (stereo not drawn) [Compound 1-38, 1-(4′-{4-[Hydroxy-(5-phenyl-[1,3,4]oxadiazol-2-yl)-methyl]-3-methyl-isoxazol-5-yl}-biphenyl-4-yl)-cyclopropanecarboxylic acid] | < 300 |
| Cc1noc(-c2ccc(-c3ccc(C4(CC(=O)O)CC4)cc3)cc2)c1C(O)c1nnc(-c2ccccc2)o1 (stereo not drawn) [Compound 1-39, [1-(4′-{4-[Hydroxy-(5-phenyl-[1,3,4]oxadiazol-2-yl)-methyl]-3-methyl-isoxazol-5-yl}-biphenyl-4-yl)-cyclopropyl]-acetic acid] | < 300 |
| Cc1noc(-c2ccc(-c3ccc(C4(CC(=O)O)CC4)cc3)cc2)c1NC(C)c1cc(-c2ccccc2)no1 (stereo not drawn) [Compound 1-42, [1-(4′-{3-Methyl-4-[1-(3-phenyl-isoxazol-5-yl)-ethylamino]-isoxazol-5-yl}-biphenyl-4-yl)-cyclopropyl]-acetic acid] | < 300 |
| Cc1noc(-c2ccc(-c3ccc(C4(CC(=O)O)CC4)cc3)cc2)c1NC(C)Cc1ccc(OCc2ccc(C(F)(F)F)cc2)cc1 (stereo not drawn) [Compound 1-45, {1-[4′-(3-Methyl-4-{1-methyl-2-[4-(4-trifluoromethyl-benzyloxy)-phenyl]-ethylamino}-isoxazol-5-yl)-biphenyl-4-yl]-cyclopropyl}-acetic acid] | 300 to 1000 |
| Cc1noc(-c2ccc(-c3ccc(C4(C(=O)O)CC4)cc3)cc2)c1C(O)c1nnc(Cc2cccc(C(F)(F)F)c2)o1 (stereo not drawn) [Compound 1-46, 1-[4′-(4-{Hydroxy-[5-(3-trifluoromethyl-benzyl)-[1,3,4]oxadiazol-2-yl]-methyl}-3-methyl-isoxazol-5-yl)-biphenyl-4-yl]-cyclopropanecarboxylic acid] | 300 to 1000 |
| Cc1noc(-c2ccc(-c3ccc(C4(C(=O)O)CC4)cc3)cc2)c1C(NS(C)(=O)=O)c1cn(Cc2ccccc2)nn1 (stereo not drawn) [Compound 1-47, 1-(4′-{4-[(1-Benzyl-1H-[1,2,3]triazol-4-yl)-methanesulfonylamino-methyl]-3-methyl-isoxazol-5-yl}-biphenyl-4-yl)-cyclopropanecarboxylic acid] | > 50000 |
| Cc1noc(-c2ccc(-c3ccc(CC(=O)O)cc3)cc2)c1C(O)c1cn(Cc2ccccc2)nn1 (stereo not drawn) [Compound 1-48, (4′-{4-[(1-Benzyl-1H-[1,2,3]triazol-4-yl)-hydroxy-methyl]-3-methyl-isoxazol-5-yl}-biphenyl-4-yl)-acetic acid] | < 300 |
| Cc1noc(-c2ccc(-c3ccc(CCC(=O)O)cc3)cc2)c1C(O)c1cn(Cc2ccccc2)nn1 (stereo not drawn) [Compound 1-49, 3-(4′-{4-[(1-Benzyl-1H-[1,2,3]triazol-4-yl)-hydroxy-methyl]-3-methyl-isoxazol-5-yl}-biphenyl-4-yl)-propionic acid] | < 300 |
| Cc1noc(-c2ccc(-c3ccc(C4(C(=O)O)CC4)cc3)cc2)c1C(O)c1cn(Cc2cccc(C(F)(F)F)c2)nn1 (stereo not drawn) [Compound 1-50, 1-[4′-(4-{Hydroxy-[1-(3-trifluoromethyl-benzyl)-1H-[1,2,3]triazol-4-yl]-methyl}-3-methyl-isoxazol-5-yl)-biphenyl-4-yl]-cyclopropanecarboxylic acid] | 1000 to 50000 |
| Cc1noc(-c2ccc(-c3ccc(CC(=O)O)cc3)cc2)c1C(O)c1cn(Cc2cccc(C(F)(F)F)c2)nn1 (stereo not drawn) [Compound 1-51, [4′-(4-{Hydroxy-[1-(3-trifluoromethyl-benzyl)-1H-[1,2,3]triazol-4-yl]-methyl}-3-methyl-isoxazol-5-yl)-biphenyl-4-yl]acetic acid] | > 50000 |
| Cc1noc(-c2ccc(-c3ccc(CCC(=O)O)cc3)cc2)c1C(O)c1cn(Cc2cccc(C(F)(F)F)c2)nn1 (stereo not drawn) [Compound 1-52, 3-[4′-(4-{Hydroxy-[1-(3-trifluoromethyl-benzyl)-1H-[1,2,3]triazol-4-yl]-methyl}-3-methyl-isoxazol-5-yl)-biphenyl-4-yl]propionic acid] | 1000 to 50000 |
